Reference: patent US20240400579A1, “SPIROCYCLIC MODULATORS OF CHOLESTEROL BIOSYNTHESIS AND THEIR USE FOR PROMOTING REMYELINATION” (GENENTECH, INC., priority 2021, published 2024)
Read-outs that look alike come from different tables or passages of the source.

Assays:
[1] = system: zymostenol accumulation in EpiSC-derived OPCs (EBP); experiment: GC/MS-based sterol profiling, zymostenol accumulation; type: cell-based, mouse; settings: 8 doses from 0.15 nM to 333 nM, read-out: mZymo GCMS EC50
Description: (§1) To assess effects of treatments on OPCs, all treatments were assayed in two or more independent platings of epiblast stem cell-derived OPCs (EpiSC). EpiSC-derived OPCs were obtained using in vitro differentiation protocols and culture conditions described previously (Najm et al, 2011, Nature Methods). OPCs were expanded and frozen down in aliquots. OPCs were thawed into growth conditions for at least one passage before use in further assays.
Sterols were monitored using a modified Folch wash protocol (Hubler et al, 2018, Nature). EpiSC-derived OPCs were plated at 100,000 cells per well in PO— and laminin-coated 96-well plates in N2B27 media without growth factors. After 24 hours, cells were rinsed with saline and plates were frozen. Cholesterol-d7 standard was then added to each well before drying under nitrogen stream and derivatization with 55 μl of bis(trimethylsilyl) trifluoroacetamide. After derivatization, 2 μl were analyzed by gas chromatography/mass spectrometry using an Agilent 5973 Network Mass Selective Detector equipped with a 6890 gas chromatograph system and a HP-5MS capillary column (30 m x 0.25 mm×[…]). Samples were analyzed in full scan mode using electron impact ionization; ion fragment peaks were integrated to calculate sterol abundance, and quantitation was relative to cholesterol-d7. The following ion fragments were used to quantitate each metabolite: cholesterol-d7 (465), FF-Mas (482), cholesterol (368), zymostenol (458), zymosterol (456), Desmosterol (456, 343), 7-dehydrocholesterol (456, 325), lanosterol (393), lathosterol (458), 14-dehydrozymostenol (456, 351). […] All standards were obtained from Avanti Polar Lipids unless otherwise indicated. Calibration curves were generated by injecting varying concentrations of sterol standards and maintaining a fixed amount of cholesterol-D7. For normalized zymostenol accumulation results, the total amount of zymostenol measured after drug treatment was divided by the total amount of zymostenol accumulated after 24 hr treatment with 100 nM positive control reference.

EpiSC-derived OPCs = experiment: In vitro phenotypic screening of OPCs, MBP high-content imaging; type: cell-based, mouse; settings: percentage of MBP+ oligodendrocytes, 3 days, 0.5 nM to 1000 nM, read-out: mOPC EC50
Description: as §1
EpiSC-derived OPCs were grown and expanded in poly-L-ornithine (PO) and laminin-coated flasks in N2B27 media (DMEM/F12 (Gibco), N2-MAX (R&D Systems), B-27 (ThermoFisher), and GlutaMax (Gibco)) supplemented with FGF2 ([…], R&D systems, 233-FB-025) and PDGF-AA ([…], R&D systems, 233-AA-050) before harvesting for experiments. The cells were seeded onto poly-L-ornithine or poly-D-lysine coated CellCarrier Ultra plates (PerkinElmer) coated with laminin (Sigma, L2020) at a density of 150,000/cm^2 in N2B27 media without growth factors. For dose-response testing, a 1000× compound stock in dimethyl sulphoxide (DMSO) was added to assay plates, resulting in 8-point dose curves with final concentrations between 1000 nM and 0.5 nM. Positive controls and DMSO vehicle controls were included in each assay plate. Cells were incubated under standard conditions (37° C., 5% CO2) for 3 days and fixed with 4% paraformaldehyde (PFA) in phosphate buffered saline (PBS) for 20 min. Fixed plates were washed with PBS, permeabilized with 0.1% Triton X-100, and blocked with 10% donkey serum (v/v) in PBS for 40 min. Then, cells were labelled with MBP antibodies (Abcam, ab7349; 1:200) for 2 h at room temperature, washed with PBS, and stained with Alexa Fluor conjugated secondary antibodies (1:500) for 45 min. Nuclei were visualized by DAPI staining (Sigma; 1 μg/ml), followed by further PBS washes.
Cells and cell culture plates were imaged on the Operetta High Content Imaging and Analysis system (PerkinElmer). Analysis (PerkinElmer Harmony and Columbus software) began by identifying intact nuclei stained by DAPI. The peri-nuclear region of each cell was then cross-referenced with the mature myelin protein (MBP) stain to identify oligodendrocyte nuclei, and from this the percentage of oligodendrocytes was calculated. EC50 values were calculated using The Levenberg-Marquardt algorithm to fit a Hill equation to dose-response data (0.5 nM to 1000 nM).

[2] = target: human emopamil binding protein and human 7-dehydrocholesterol reductase co-expressing cell membrane (Homo sapiens (Human), UniProt Q15125); experiment: hEBP-DHCR7 radioligand filtration binding assay with [3H]-Compound 118A*; settings: radioligand [3H]-Compound 118A*; HEK293 membrane co-expressing hEBP and DHCR7
human emopamil binding protein and human 7-dehydrocholesterol reductase co-expressing cell membrane, sequence (Q15125 whole entry): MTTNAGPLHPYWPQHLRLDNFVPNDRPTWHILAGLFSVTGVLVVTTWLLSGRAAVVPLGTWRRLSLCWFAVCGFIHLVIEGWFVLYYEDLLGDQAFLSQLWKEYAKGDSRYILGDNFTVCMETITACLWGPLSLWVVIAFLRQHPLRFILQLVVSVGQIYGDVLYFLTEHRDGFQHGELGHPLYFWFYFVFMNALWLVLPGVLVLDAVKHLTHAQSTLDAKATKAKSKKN
Description: Membrane Preparation: human emopamil binding protein and human 7-dehydrocholesterol reductase co-expressing cells were generated by transient transfecting host human embryonic kidney (HEK) 293 cells with 2 DNA constructs containing each protein's coding sequence. Cells were suspension cultured at 37° C. with 5% CO2 in […] 293 Expression Medium (Thermofisher). Whole cell membrane was prepared by harvesting the cell pellet, adding cold membrane buffer (50 mM Tris, pH7.5, 1× Roche COMPLETE EDTA-free protease inhibitor cocktail) 10 times volume of the cell pellets weight, lysing cell pellet on ice by using Dounce homogenizer, spinning at 200 g 4° C. for 15 min, collecting supernatant and spinning again at 25000 g 4° C. for 50 min, transferring pellet to Dounce homogenizer, re-suspending pellet by homogenizing in membrane buffer on ice to reach ˜25 mg/mL, then keeping whole cell membrane aliquots at −80° C.
Compounds were prepared in a 96-well U bottom plate using an Echo550 machine and 10 mM compound DMSO stock solution, followed by an 8-dose 5-fold serial dilutions protocol with final testing compound concentration ranging from 0.06 to 5000 nM, with DMSO back fill to 100 nL/well and n=2. […] The UniFilter-96 GF/B plates were pre-treated by adding 50 μl/well of 0.3% (v/v) PEI to UniFilter-96 GF/B plates. The plates were sealed and incubated at 4° C. for 3 hrs. Then, the plates were washed with ice-cold assay buffer 3 times. The radioligand binding assay was prepared by adding assay buffer diluted hEBP-DHCR7 membrane at 66.7 μg/ml x 150 μl/well into the 96-well compound plate to reach 10 μg membrane per well. Then, the assay buffer diluted [3H]-Compound 118A* was added at 25 nM×50 μl/well. Following this, the plate was centrifuged at 1000 rpm for 30 secs. The plate was then sealed and agitated at 600 rpm at 22° C. for 5 min, and then incubated at 22° C. for 3 hrs. The incubation was stopped by transferring the binding solution to the pre-treated UniFilter-96 GF/B plate, vacuum filtrated, and then washed four times with ice-cold assay buffer. Following this, the plates were dried at 37° C. for 45 min. The plates were then sealed at the bottom. 40 μl/well of scintillation cocktail was added to the plates. A MicroBeta2 microplate counter was then used to read the plate and analyze the data. For reference and test compounds, the results are expressed as % Inhibition, using the normalization equation: N=100-100×(U−C2)/(C1−C2), where U is the unknown value, C1 is the average of high controls, and C2 is the average value of low controls. The IC50 was determined by fitting percentage of inhibition as a function of compound concentrations with Hill equation using XLfit. Results are expressed as hEBP-DHCR7 Ki (uM) in Table 4. Ki was calculated as described above.

EC50 ([1]; Mus musculus, 24 h) [nM] | EC50 (EpiSC-derived OPCs; Mus musculus, 72 h) [nM] | Ki [2] [nM] | EC50 ([1]; 24 hours) [nM] | EC50 (EpiSC-derived OPCs) [nM] | Compound
5.6 | 24 | 19.4 |  |  | CC(C)(CN1CCC2(CC1)CS(=O)(=O)C2)Oc1ccc(C(F)(F)F)nc1 [Example 205, 7-(2-Methyl-2-((6-(trifluoromethyl)pyridin-3-yl)oxy)propyl)-2-thia-7-azaspiro[3.5]nonane 2,2-dioxide]
3.3 | 11 | 16 |  |  | CC(C)(Cc1ccc(C(F)(F)F)nc1)CN1CCC2(CC1)CS(=O)(=O)C2 [Example 152, 7-(2,2-Dimethyl-3-(6-(trifluoromethyl)pyridin-3-yl)propyl)-2-thia-7-azaspiro[3.5]nonane-2,2-dioxide]
1.5 | 3.2 | 13.2 |  |  | O=S1(=O)CC2(CCN(CCOc3ccc(Cl)c(F)c3)CC2)C1 [Example 206, 7-(2-(4-Chloro-3-fluorophenoxy)ethyl)-2-thia-7-azaspiro[3.5]nonane 2,2-dioxide]
0.87 | 1.6 | 7.23 |  |  | CC(C)(Cc1ccc(C(F)(F)F)cc1)CN1CCC2(CC1)CS(=O)(=O)C2 [Example 153, 7-(2,2-Dimethyl-3-(4-(trifluoromethyl)phenyl)propyl)-2-thia-7-azaspiro[3.5]nonane-2,2-dioxide]
6.4 | 22 | 51.9 |  |  | C[C@@H](Cc1ccc(C(F)(F)F)nc1)CN1CCC2(CC1)CS(=O)(=O)C2 (single isomer, unassigned) [Example 203*]
75.5 | 346 | 1.96 |  |  | O=S1(=O)CC2(CCN(CCOc3cnc(C4CCCCC4)c(Cl)c3)CC2)C1 [Compound 240, 7-[2-[(5-Chloro-6-cyclohexyl-3-pyridyl)oxy]ethyl]-26-thia-7-azaspiro[3.5]nonane 2,2-dioxide]

More lines, now with the values behind:

Compound | EC50 ([1]; Mus musculus, 24 h) [nM] | EC50 (EpiSC-derived OPCs; Mus musculus, 72 h) [nM] | Ki [2] [nM] | EC50 ([1]; 24 hours) [nM] | EC50 (EpiSC-derived OPCs) [nM]
O=S1(=O)CC2(CCN(CCOc3ccc(OC(F)(F)F)cc3)CC2)C1 [Compound 218, 7-(2-(4-(Trifluoromethoxy)phenoxy)ethyl)-2-thia-7-azaspiro[3.5]nonane 2,2-dioxide] | 0.93 | 2.5 | 6.54 |  | 
CCC(C)(C)c1ccc(CC(C)CN2CCC3(CC2)CS(=O)(=O)C3)cc1 (racemic) [Compound 110, 7-(2-Methyl-3-(4-(tert-pentyl)phenyl)propyl)-2-thia-7-azaspiro[3.5]nonane 2,2-dioxide] | 22 | 30 | 8.44 |  | 
CC(Cc1ccc(F)c(F)c1)CN1CCC2(CC1)CS(=O)(=O)C2 (single isomer, unassigned) [212A*, 7-(3-(3,4-Difluorophenyl)-2-methylpropyl)-2-thia-7-azaspiro[3.5]nonane 2,2-dioxide] | 2.36 | 4.7 | 15.6 |  | 
O=S1(=O)CC2(CCN(CC[C@@H](F)c3ccc(C(F)(F)F)nc3)CC2)C1 (single isomer, unassigned) [237B*] | 17 | 69.1 | 117 |  | 
C[C@@H](Cc1ccc(C(F)(F)F)nc1)CN1CC2(CCS(=O)(=O)CC2)C1 (single isomer, unassigned) [234B*] | 35 | 210 | 193 |  | 
CC(Cc1ccc(C2(C)CC2)cc1)CN1CCC2(C1)CS(=O)(=O)C2 (racemic) [Compound 111A, 6-(2-Methyl-3-(4-(1-methylcyclopropyl)phenyl)propyl)-2-thia-6-azaspiro[3.4]octane 2,2-dioxide] | 1.3 | 20 | 8.57 |  | 
C[C@@H](Cc1ccc([C@H]2CC[C@](O)(C(F)(F)F)CC2)c(Cl)c1)CN1CCC2(C1)CS(=O)(=O)C2 (stereo in doubt) [116A*, 6-((S)-3-(3-Chloro-4-((1s,4R)-4-hydroxy-4-(trifluoromethyl)cyclohexyl)phenyl)-2-methylpropyl)-2-thia-6-azaspiro[3.4]octane 2,2-dioxide, 6-((R)-3-(3-chloro-4-((1s,4S)-4-hydroxy-4-(trifluoromethyl)cyclohexyl)phenyl)-2-methylpropyl)-2-thia-6-azaspiro[3.4]octane 2,2-dioxide] |  |  | 10.5 | 0.49 | 1.6
CC(C)(CN1CCC2(CC1)CS(=O)(=O)C2)Oc1cccc(C(F)(F)F)c1 [Compound 233, 7-(2-Methyl-2-(3-(trifluoromethyl)phenoxy)propyl)-2-thia-7-azaspiro[3.5]nonane 2,2-dioxide] | 1.5 | 5.7 | 13.2 |  | 
CC(C)n1nc(C(F)(F)F)cc1OCCN1CCC2(CC1)CS(=O)(=O)C2 [Compound 239] | 39.8 | 374 | 41.9 |  | 
CCC(C)(C)c1ccc(CCC(C)N2CCC3(C2)CS(=O)(=O)C3)cc1 (racemic) [Compound 105, 6-(4-(4-(tert-Pentyl)phenyl)butan-2-yl)-2-thia-6-azaspiro[3.4]octane 2,2-dioxide] | 66 | 260 | 12.9 |  | 
O=S1(=O)CC2(CCN(CCOc3ccnc(C(F)(F)F)c3)CC2)C1 [Compound 236, 7-(2-((2-(Trifluoromethyl)pyridin-4-yl)oxy)ethyl)-2-thia-7-azaspiro[3.5]nonane 2,2-dioxide] | 2.64 | 3.89 | 17 |  | 
